Results on ten compounds are retold here after ChEMBL document CHEMBL4011594, “Discovery and optimization of 2-pyridinone aminal integrase strand transfer inhibitors for the treatment of HIV” (Bioorg Med Chem Lett, 2017).

Converted amounts (≈) assume the structure as drawn. Some results are limits rather than exact numbers.

A short description of data set [1]: Aqueous solubility of the compound at pH 2. Format: physicochemical.
Data set [2] in a line: Aqueous solubility of the compound at pH 7. Format: physicochemical.
The nature of data set [3]: Clearance in Beagle dog at 0.5 mg/kg, iv or 1 mg/kg, po. The following applies: in vivo. Format: ADME, organism-based, Canis lupus familiaris.
Data set [4] can be described thus: Volume of distribution in Beagle dog at 0.5 mg/kg, iv or 1 mg/kg, po. Format: ADME, organism-based, Canis lupus familiaris. The settings on record: in vivo.
The nature of data set [5]: Half life in Beagle dog at 0.5 mg/kg, iv or 1 mg/kg, po. The class given is ADME, organism-based, Canis lupus familiaris. The settings on record: in vivo.
Data set [6] is described as follows: Oral bioavailability in Beagle dog at 1 mg/kg. Format: ADME, organism-based, Canis lupus familiaris. The following applies: in vivo.
Data set [7] has as its system Human immunodeficiency virus 1. The experiment in a line: Inhibition of wild-type HIV-1 integrase strand transfer activity assessed as reduction in viral replication in presence of 10% normal human serum.
The test system of data set [8] is Human immunodeficiency virus type 1 integrase (Human immunodeficiency virus 1), Q7ZJM1 [E92Q]. The experiment in a line: Inhibition of HIV-1 integrase E92Q mutant strand transfer activity assessed as reduction in viral replication.
The subject of data set [9] is Human immunodeficiency virus type 1 integrase (Human immunodeficiency virus 1), Q7ZJM1 [Y143R]. The experiment in a line: Inhibition of HIV-1 integrase Y143R mutant strand transfer activity assessed as reduction in viral replication.
Data set [10] concerns Human immunodeficiency virus type 1 integrase (Human immunodeficiency virus 1), Q7ZJM1 [Q148R]. The experiment in a line: Inhibition of HIV-1 integrase Q148R mutant strand transfer activity assessed as reduction in viral replication.
The test system of data set [11] is Human immunodeficiency virus type 1 integrase (Human immunodeficiency virus 1), Q7ZJM1 [Q148K]. The experiment in a line: Inhibition of HIV-1 integrase Q148K mutant strand transfer activity assessed as reduction in viral replication.
For data set [12], the system named is Human immunodeficiency virus type 1 integrase (Human immunodeficiency virus 1), Q7ZJM1 [N155H]. The experiment in a line: Inhibition of HIV-1 integrase N155H mutant strand transfer activity assessed as reduction viral replication.
Data set [13] concerns Human immunodeficiency virus type 1 integrase (Human immunodeficiency virus 1), Q7ZJM1 [G140S,Q148H]. The experiment in a line: Inhibition of HIV-1 integrase G140S/Q148H double mutant strand transfer activity assessed as reduction in viral replication.
Data set [14] relates to Human immunodeficiency virus 1. The experiment in a line: Inhibition of HIV-1 integrase strand transfer activity assessed as reduction in viral replication in presence of 50% normal human serum.
Data set [15] in a line: Plasma protein binding in Beagle dog. The class given is ADME, cell-free, Canis lupus familiaris. The settings on record: read-out: PPB (converted).
Data set [16] can be described thus: Apparent permeability of the compound. Format: physicochemical. The following applies: not told.

A word on the solubility: it is how much of the substance goes into solution per volume. Lower therefore signals a poorly soluble substance. Broadly, the half-life is the time in which the quantity being followed falls by half. High values mean slow loss, low ones fast loss. The term bioavailability denotes dose-corrected exposure relative to a reference, in per cent. On to `O=C1N[C@]2(CC[C@H]3C[C@H]32)n2c1c1c(c(O)c2=O)C(=O)N(Cc2ccc(F)c(Cl)c2)CC1`, for which the solubility in data set [1] was 30 to 50 µM (≈ 13.3 to 22.2 µg/mL); in [2] it was 31 µM (≈ 13.8 µg/mL). In data set [3], this compound registered a clearance of 0.12 mL/min/kg. The same compound yielded a Vd in [4] of 0.1 L/kg. In data set [5], this compound gave a half-life of 13 h. This compound yielded a bioavailability in [6] of 15%. The IP in data set [7] was 30 nM; in data set [8], 210 nM; in [9] it was 28 nM; in data set [10], 107 nM; in [11] it was 450 nM; in data set [12] it was 84 nM. Also, the IP in data set [13] came to 491 nM; in data set [14] it was 206 nM.
Consider `O=C1c2c(c3n(c(=O)c2O)[C@@H](C2CC2)N(C2CC2)C3=O)CCN1Cc1ccc(F)c(Cl)c1`, for which, in [15], the fraction unbound is 0.024. The solubility in data set [1] was determined as 40 µM (≈ 18.3 µg/mL); in data set [2] it was 34 µM (≈ 15.6 µg/mL). Moreover, the clearance in data set [3] turned out to be 1.4 mL/min/kg. In [4], the Vd was found to be 0.7 L/kg. The half-life in [5] was 7.5 h. In addition, the bioavailability in data set [6] worked out at 44%. Further, the IP in data set [7] came to 95 nM; in [8], 123 nM; in data set [9], 142 nM; in [10], 1010 nM; in [11], 820 nM; in [12], 271 nM. Moreover, the IP in [13] worked out at 1540 nM; in data set [14], 1730 nM.
`C[C@H](O)CN1C(=O)c2c3c(c(O)c(=O)n2[C@@]12CC[C@H]1C[C@H]12)C(=O)N(Cc1ccc(F)c(Cl)c1)CC3`: in data set [15], the fraction unbound is 0.025. In addition, the solubility in data set [1] stood at 125 µM (≈ 62.7 µg/mL); in data set [2], 98 µM (≈ 49.2 µg/mL). Besides, the clearance in [3] came to 2.9 mL/min/kg. In addition, the Vd in data set [4] was 0.5 L/kg. Also, in data set [5], the half-life is 6 h. The same compound registered a bioavailability in data set [6] of 42%. For the same compound, the IP came to 8 nM in [7]; 10 nM in [8]; 11 nM in data set [9]; 10 nM in data set [10]; 10 nM in data set [11]; 11 nM in [12]. Further, the IP in [13] came out at 27 nM; in [14], 44 nM.
For the compound `COc1ccnc2c1C1(CC2)NC(=O)c2c3c(c(O)c(=O)n21)C(=O)N(Cc1ccc(F)c(Cl)c1)CC3` (racemic), the solubility was determined as 190 µM (≈ 97.1 µg/mL) in data set [1] and 63 µM (≈ 32.2 µg/mL) in data set [2]. Further, the IP in data set [7] was 13 nM; in data set [14] it was 74 nM.
Consider `CO[C@@H](C)CN1C(=O)c2c3c(c(O)c(=O)n2C12CCC1CC12)C(=O)N(Cc1ccc(F)c(Cl)c1)CC3` (stereo not given in full), for which the results for the solubility in [1] and in [2] were 12 µM (≈ 6.19 µg/mL) and 23 µM (≈ 11.9 µg/mL), respectively. The IP in [7] is 28 nM; in data set [14], 210 nM.
The term Papp denotes the rate of passage across a membrane or cell layer, normalised by area and donor concentration. On to `N#Cc1cccc2c1[C@]1(CC2)NC(=O)c2c3c(c(O)c(=O)n21)C(=O)N(Cc1ccc(F)c(Cl)c1)CC3`, for which the fraction unbound in [15] is 0.028. The solubility worked out at 8 µM (≈ 4.04 µg/mL) in [1] and 10 µM (≈ 5.05 µg/mL) in data set [2]. The compound further returned a clearance in data set [3] of 2.4 mL/min/kg. Further, the Vd in data set [4] was 0.9 L/kg. The compound further had a half-life in data set [5] of 10.6 h. This compound returned a bioavailability in data set [6] of 40%. Also, the apparent permeability coefficient (Papp) in data set [16] amounted to 7 ×10⁻⁶ cm/s. In addition, the IP came out at 4 nM in [7]; 18 nM in [8]; 4 nM in data set [9]; 7 nM in data set [10]; 9 nM in data set [11]; 13 nM in [12]. In addition, the IP in [13] and in data set [14] was 18 nM throughout.
`CC1CCC2(C1)NC(=O)c1c3c(c(O)c(=O)n12)C(=O)N(Cc1ccc(F)c(Cl)c1)CC3` (racemic): the solubility in data set [1] and in data set [2] was less than 5 µM each time. The IP in data set [7] was 110 nM; in [14] it was 700 nM.
With `O=C1NC2(CCc3ccccc32)n2c1c1c(c(O)c2=O)C(=O)N(Cc2ccc(F)c(Cl)c2)CC1` (racemic), the solubility in [1] and in data set [2] was less than 2 µM in each case. Besides, the figures for the IP in data set [7] and in [14] were 27 nM and 190 nM, respectively.
Take `O=C1c2c(c3n(c(=O)c2O)C2(CCC4CC42)N(CCN2C(=O)CCC2=O)C3=O)CCN1Cc1ccc(F)c(Cl)c1` (stereo not given): the fraction unbound in [15] is 0.058. In addition, the results for the solubility in data set [1] and in data set [2] were 89 µM (≈ 50.6 µg/mL) and 48 µM (≈ 27.3 µg/mL), respectively. In data set [3], this compound returned a clearance of 7.3 mL/min/kg. This compound gave a Vd in data set [4] of 2.1 L/kg. The same compound showed a half-life in data set [5] of 6.6 h. The compound further returned a bioavailability in data set [6] of 4.5 to 5%. The IP was determined as 7 nM in data set [7]; 7 nM in data set [8]; 11 nM in [9]; 7 nM in data set [10]; 7 nM in [11]; 8 nM in data set [12]. Further, the IP in data set [13] is 23 nM; in data set [14] it was 46 nM.
Turning to `CO[C@H](C)CN1C(=O)c2c3c(c(O)c(=O)n2C12CCC1CC12)C(=O)N(Cc1ccc(F)c(Cl)c1)CC3` (stereo not given in full), the solubility in [1] came to 46 µM (≈ 23.7 µg/mL); in data set [2], 26 µM (≈ 13.4 µg/mL). The IP in data set [7] was determined as 25 nM; in data set [14], 180 nM.
